Read-outs that look alike come from different tables or passages of the source.
Columns and labels:
[1] = test system: aCD3/aCD28-stimulated human PBMCs; test: Cytokine production in aCD3/aCD28 stimulated human PBMCs; type: cell-based; details: PBMC, 18 h
Method in brief: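 Compound effects measured in buffy-coat PBMCs activated 18 h at 37° C by 1 μg/mL each of soluble anti-CD3 (OKT3) and anti-CD28 (28.2), 1e6 cells/mL. Cytokines in harvested supernatants read by MSD or HTRF.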

[2] = test system: aCD3/aCD28-stimulated human CD4+-T-cells; test: IL-2 production and activation markers in aCD3/aCD28 stimulated isolated human CD4+-T-cells; type: cell-based; details: IL-2 production at 3 μM compound
Method in brief: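 CD4+ T cells isolated from buffy-coat PBMCs by microbeads were plated in Xvivo medium (1.5*10^5 cells/well) and stimulated with anti-CD3/28 mAbs plus compound. IL-2 measured by ELISA in supernatants at 24 h or 48 h; CD25 and proliferation by flow cytometry, CD69 at 24 h. Activity classes based on IL-2 at 3 μM compound.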

[3] = enhancement of IFN-γ production, read-out: Activity Class IFN-γ
[4] = enhancement of IL-2 production, read-out: Activity Class IL-2

Which EC50 [1, 3] does the source give for `CC(C)CNNC(=O)c1ccc2c(c1)N(Cc1ccc(Cl)cc1)C(=O)[C@@H](N)CS2.Cl` [Example 65, (3R)-3-amino-5-[(4-chlorophenyl)methyl]-N′-(2-methylpropyl)-4-oxo-2,3,4,5-tetrahydro-1,5-benzothiazepine-7-carbohydrazide hydrochloride] here?
Its EC50 is 1580 to 5010 nM.

What about the EC50 [1, 4] of the same compound?
The EC50 was 1580 to 5010 nM.

And the “Activity Class CD4+” value [2]?
Its value is “C (IL-2 production at 3 μM compound concentration between 2-fold increase as compared to mean IL-2 production of stimulated cells in the absence of compounds and <2 ng/mL)”.

What does the source list for `CCCCNC(=O)c1ccc2c(c1)N(Cc1ccc(Cl)cc1)C(=O)[C@@H](N)C[S+]2[O-].Cl` (stereo partly drawn) [Example 66, (3R)-3-amino-N-butyl-5-[(4-chlorophenyl)methyl]-1,4-dioxo-2,3,4,5-tetrahydro-1λ^4,5-benzothiazepine-7-carboxamide hydrochloride]?
EC50 [1, 3]: < 1580 nM; EC50 [1, 4]: 1580 to 5010 nM; Activity Class CD4+ [2]: C (IL-2 production at 3 μM compound concentration between 2-fold increase as compared to mean IL-2 production of stimulated cells in the absence of compounds and <2 ng/mL)

What does the source list for `Cl.N[C@H]1CS(=O)(=O)c2cc(F)c(C(=O)NOc3ccccc3)cc2N(Cc2ccc(OC(F)(F)F)cc2)C1=O` [Example 74, (3R)-3-amino-8-fluoro-1,1,4-trioxo-N-phenoxy-5-{[4-(trifluoromethoxy)phenyl]methyl}-2,3,4,5-tetrahydro-1λ^6,5-benzothiazepine-7-carboxamide hydrochloride]?
EC50 [1, 3]: 1580 to 5010 nM; EC50 [1, 4]: > 5010 nM; Activity Class CD4+ [2]: C (IL-2 production at 3 μM compound concentration between 2-fold increase as compared to mean IL-2 production of stimulated cells in the absence of compounds and <2 ng/mL)

What does the source list for `CC(C)CONC(=O)c1cc2c(cc1F)S(=O)(=O)C[C@H](N)C(=O)N2Cc1ccc(Cl)cc1.Cl` [Example 75, (3R)-3-amino-5-[(4-chlorophenyl)methyl]-8-fluoro-N-(2-methylpropoxy)-1,1,4-trioxo-2,3,4,5-tetrahydro-1λ^6,5-benzothiazepine-7-carboxamide hydrochloride]?
EC50 [1, 3]: 1580 to 5010 nM; EC50 [1, 4]: > 5010 nM; Activity Class CD4+ [2]: B (IL-2 production at 3 μM compound concentration between 2-10 ng/mL)

With `CC(C)NC(=O)c1ccc2c(c1)N(Cc1ccc(Cl)cc1)C(=O)[C@@H](N)CS2(=O)=O.Cl` [Example 79, (3R)-3-amino-5-[(4-chlorophenyl)methyl]-1,1,4-trioxo-N-(propan-2-yl)-2,3,4,5-tetrahydro-1λ^6,5-benzothiazepine-7-carboxamide hydrochloride] as the compound, how does the EC50 [1, 3] read?
Its EC50 is 1580 to 5010 nM.

And the EC50 [1, 4]?
The EC50 was > 5010 nM.

What about the “Activity Class CD4+” value [2] of the same compound?
Its value is “B (IL-2 production at 3 μM compound concentration between 2-10 ng/mL)”.

What does the source list for `Cl.N[C@H]1CS(=O)(=O)c2ccc(C(=O)NCCCC(F)(F)F)cc2N(Cc2ccc(Cl)cc2)C1=O` [Example 80, (3R)-3-amino-5-[(4-chlorophenyl)methyl]-1,1,4-trioxo-N-(4,4,4-trifluorobutyl)-2,3,4,5-tetrahydro-1λ^6,5-benzothiazepine-7-carboxamide hydrochloride]?
EC50 [1, 3]: < 1580 nM; EC50 [1, 4]: < 1580 nM; Activity Class CD4+ [2]: A (IL-2 production at 3 μM compound concentration >10 ng/mL)

What does the source list for `CC(C)C(C)NC(=O)c1ccc2c(c1)N(Cc1ccc(Cl)cc1)C(=O)[C@@H](N)CS2(=O)=O.Cl` (stereo partly drawn) [Example 83, (3R)-3-amino-5-[(4-chlorophenyl)methyl]-N-(3-methylbutan-2-yl)-1,1,4-trioxo-2,3,4,5-tetrahydro-1λ^6,5-benzothiazepine-7-carboxamide hydrochloride]?
EC50 [1, 3]: < 1580 nM; EC50 [1, 4]: > 5010 nM; Activity Class CD4+ [2]: B (IL-2 production at 3 μM compound concentration between 2-10 ng/mL)

`C=CCCNC(=O)c1ccc2c(c1)N(Cc1ccc(Cl)cc1)C(=O)[C@@H](N)CS2(=O)=O.Cl` [Example 84, (3R)-3-amino-N-(but-3-en-1-yl)-5-[(4-chlorophenyl)methyl]-1,1,4-trioxo-2,3,4,5-tetrahydro-1λ^6,5-benzothiazepine-7-carboxamide hydrochloride] was tested. Which EC50 [1, 3] did it give?
Its EC50 is < 1580 nM.

And the EC50 [1, 4]?
Its EC50 is 1580 to 5010 nM.

And the “Activity Class CD4+” value [2]?
Its value is “B (IL-2 production at 3 μM compound concentration between 2-10 ng/mL)”.

Which results are given for `Cl.N[C@H]1CS(=O)(=O)c2cc(F)c(C(=O)NC3CC3)cc2N(Cc2ccc(Cl)cc2)C1=O` [Example 85, (3R)-3-amino-5-[(4-chlorophenyl)methyl]-N-cyclopropyl-8-fluoro-1,1,4-trioxo-2,3,4,5-tetrahydro-1λ^6,5-benzothiazepine-7-carboxamide hydrochloride]?
EC50 [1, 3]: 1580 to 5010 nM; EC50 [1, 4]: 1580 to 5010 nM; Activity Class CD4+ [2]: C (IL-2 production at 3 μM compound concentration between 2-fold increase as compared to mean IL-2 production of stimulated cells in the absence of compounds and <2 ng/mL)

How did the EC50 [1, 3] turn out when `Cl.N[C@H]1CS(=O)(=O)c2cc(F)c(C(=O)NC3CCC3)cc2N(Cc2ccc(Cl)cc2)C1=O` [Example 86, (3R)-3-amino-5-[(4-chlorophenyl)methyl]-N-cyclobutyl-8-fluoro-1,1,4-trioxo-2,3,4,5-tetrahydro-1λ^6,5-benzothiazepine-7-carboxamide hydrochloride] was run?
Its EC50 is < 1580 nM.

And the EC50 [1, 4]?
The EC50 was 1580 to 5010 nM.

And the “Activity Class CD4+” value [2]?
The value was “B (IL-2 production at 3 μM compound concentration between 2-10 ng/mL)”.

What does the source list for `CC(C)NC(=O)c1cc2c(cc1F)S(=O)(=O)C[C@H](N)C(=O)N2Cc1ccc(Cl)cc1F.Cl` [Example 87, (3R)-3-amino-5-[(4-chloro-2-fluorophenyl)methyl]-8-fluoro-1,1,4-trioxo-N-(propan-2-yl)-2,3,4,5-tetrahydro-1λ^6,5-benzothiazepine-7-carboxamide hydrochloride]?
EC50 [1, 3]: > 5010 nM; EC50 [1, 4]: > 5010 nM; Activity Class CD4+ [2]: C (IL-2 production at 3 μM compound concentration between 2-fold increase as compared to mean IL-2 production of stimulated cells in the absence of compounds and <2 ng/mL)

For `CC(C)NC(=O)c1ccc2c(c1)N(Cc1ccc(Cl)c(Cl)c1)C(=O)[C@@H](N)CS2(=O)=O.Cl` [Example 88, (3R)-3-amino-5-[(3,4-dichlorophenyl)methyl]-1,1,4-trioxo-N-(propan-2-yl)-2,3,4,5-tetrahydro-1λ^6,5-benzothiazepine-7-carboxamide hydrochloride], which EC50 [1, 3] is on record?
Its EC50 is 1580 to 5010 nM.

What about the EC50 [1, 4] of the same compound?
The EC50 was > 5010 nM.

And the “Activity Class CD4+” value [2]?
Its value is “C (IL-2 production at 3 μM compound concentration between 2-fold increase as compared to mean IL-2 production of stimulated cells in the absence of compounds and <2 ng/mL)”.

Which results are given for `CC(C)NC(=O)c1ccc2c(c1)N(Cc1ccc(Cl)c(F)c1)C(=O)[C@@H](N)CS2(=O)=O.Cl` [Example 89, (3R)-3-amino-5-[(4-chloro-3-fluorophenyl)methyl]-1,1,4-trioxo-N-(propan-2-yl)-2,3,4,5-tetrahydro-1λ^6,5-benzothiazepine-7-carboxamide hydrochloride]?
EC50 [1, 3]: 1580 to 5010 nM; EC50 [1, 4]: > 5010 nM; Activity Class CD4+ [2]: C (IL-2 production at 3 μM compound concentration between 2-fold increase as compared to mean IL-2 production of stimulated cells in the absence of compounds and <2 ng/mL)

How did the EC50 [1, 3] turn out when `Cl.N[C@H]1CS(=O)(=O)c2cc(F)c(C(=O)NCC(F)(F)F)cc2N(Cc2ccc(Cl)cc2)C1=O` [Example 92, (3R)-3-amino-5-[(4-chlorophenyl)methyl]-8-fluoro-1,1,4-trioxo-N-(2,2,2-trifluoro-ethyl)-2,3,4,5-tetrahydro-1λ^6,5-benzothiazepine-7-carboxamide hydrochloride] was run?
Its EC50 is 1580 to 5010 nM.

What about the EC50 [1, 4] of the same compound?
The EC50 was 1580 to 5010 nM.

What about the “Activity Class CD4+” value [2] of the same compound?
Its value is “B (IL-2 production at 3 μM compound concentration between 2-10 ng/mL)”.

Which EC50 [1, 3] does the source give for `Cl.N[C@H]1CS(=O)(=O)c2cc(F)c(C(=O)NCCC(F)(F)F)cc2N(Cc2ccc(Cl)cc2)C1=O` [Example 93, (3R)-3-amino-5-[(4-chlorophenyl)methyl]-8-fluoro-1,1,4-trioxo-N-(3,3,3-trifluoro-propyl)-2,3,4,5-tetrahydro-1λ^6,5-benzothiazepine-7-carboxamide hydrochloride] here?
Its EC50 is 1580 to 5010 nM.

What about the EC50 [1, 4] of the same compound?
The EC50 was < 1580 nM.

What about the “Activity Class CD4+” value [2] of the same compound?
Its value is “A (IL-2 production at 3 μM compound concentration >10 ng/mL)”.

`C[C@H](NC(=O)c1cc2c(cc1F)S(=O)(=O)C[C@H](N)C(=O)N2Cc1ccc(Cl)cc1)C(F)(F)F.Cl` [Example 94, (3R)-3-amino-5-[(4-chlorophenyl)methyl]-8-fluoro-1,1,4-trioxo-N-[(2S)-1,1,1-trifluoropropan-2-yl]-2,3,4,5-tetrahydro-1λ^6,5-benzothiazepine-7-carboxamide hydrochloride] was tested. Which EC50 [1, 3] did it give?
The EC50 was 1580 to 5010 nM.

What about the EC50 [1, 4] of the same compound?
Its EC50 is > 5010 nM.

What about the “Activity Class CD4+” value [2] of the same compound?
The value was “C (IL-2 production at 3 μM compound concentration between 2-fold increase as compared to mean IL-2 production of stimulated cells in the absence of compounds and <2 ng/mL)”.

What does the source list for `CCC(C)NC(=O)c1cc2c(cc1F)S(=O)(=O)C[C@H](N)C(=O)N2Cc1ccc(Cl)cc1.Cl` (stereo partly drawn) [Example 95, (3R)-3-amino-N-(butan-2-yl)-5-[(4-chlorophenyl)methyl]-8-fluoro-1,1,4-trioxo-2,3,4,5-tetrahydro-1λ^6,5-benzothiazepine-7-carboxamide hydrochloride]?
EC50 [1, 3]: < 1580 nM; EC50 [1, 4]: 1580 to 5010 nM; Activity Class CD4+ [2]: B (IL-2 production at 3 μM compound concentration between 2-10 ng/mL)

Which results are given for `CC(C)(C)NC(=O)c1cc2c(cc1F)S(=O)(=O)C[C@H](N)C(=O)N2Cc1ccc(Cl)cc1.Cl` [Example 96, (3R)-3-amino-N-tert-butyl-5-[(4-chlorophenyl)methyl]-8-fluoro-1,1,4-trioxo-2,3,4,5-tetrahydro-1λ^6,5-benzothiazepine-7-carboxamide hydrochloride]?
EC50 [1, 3]: < 1580 nM; EC50 [1, 4]: < 1580 nM; Activity Class CD4+ [2]: A (IL-2 production at 3 μM compound concentration >10 ng/mL)

— patent publication US10472341B2, “Bicyclic tetrahydrothiazepine derivatives useful for the treatment of neoplastic and/or infectious diseases” (APEIRON BIOLOGICS AG, priority 2015, dated 2019)
